# Values quoted from earlier work as cited in patent US20210292807A1, “METHOD FOR TESTING ANTIMICROBIAL SUSCEPTIBILITY” (priority 2017, published 2021).
# Where two headings read alike, the source gives them in different places.
# System: Klebsiella isolates
# Conditions: cited from earlier work
smiles,measurement,setting,value
C[C@@H](O)[C@H]1C(=O)N2C(C(=O)O)=C(S[C@@H]3CN[C@H](C(=O)N(C)C)C3)[C@H](C)[C@H]12 [meropenem],"MIC, high-level resistance end of the collection's susceptibility phenotypes",48 Klebsiella isolates,> 256 µg/mL
same,"MIC, highly-susceptible end of the collection's susceptibility phenotypes",48 Klebsiella isolates,< 1.006 µg/mL
same,Referring Lab's MIC,"isolate 194, Sweden, VIM",≥32 mg/L
same,Referring Lab's MIC,"isolate 374, Sweden, VIM",>32 mg/L
same,Referring Lab's MIC,"isolate 3354, Australia",≤≤0.25 mg/L
same,Referring Lab's MIC,"isolate 10924, Sweden, KPC",4 mg/L
same,Referring Lab's MIC,"isolate 18397, Australia",≤≤0.25 mg/L
same,Referring Lab's MIC,"isolate 43288, Australia",≤≤0.25 mg/L
same,Referring Lab's MIC,"isolate 43292, Australia",≤≤0.25 mg/L
same,Referring Lab's MIC,"isolate 43358, Australia",≤≤0.25 mg/L
same,Referring Lab's MIC,"isolate 43854, Australia",≤≤0.25 mg/L
same,Referring Lab's MIC,"isolate 44271, Australia",≤≤0.25 mg/L
same,Referring Lab's MIC,"isolate 51575, Sweden, ESBL",0.064 mg/L
same,Referring Lab's MIC,"isolate 70708, Sweden, KPC",16 mg/L
same,Referring Lab's MIC,"isolate 71076, Sweden, KPC",≥32 mg/L
same,Referring Lab's MIC,"isolate 200822, Sweden, KPC",8 mg/L
same,Referring Lab's MIC,"isolate 270902, England",0.125 mg/L
same,Referring Lab's MIC,"isolate 500638, Sweden, pAmpC",≤0.25 mg/L
same,Referring Lab's MIC,"isolate 515870, Sweden, ESBL",0.125 mg/L
same,Referring Lab's MIC,"isolate 2440606, England",≤0.06 mg/L
same,Referring Lab's MIC,"isolate 2880622, England",≤0.06 mg/L
same,Referring Lab's MIC,"isolate 2880654, England, KPC",4 mg/L
same,Referring Lab's MIC,"isolate 2890369, England",1 mg/L
same,Referring Lab's MIC,"isolate 2980639, England",1 mg/L
same,Referring Lab's MIC,"isolate 3000770, England, NDM-1",>32 mg/L
same,Referring Lab's MIC,"isolate 3040820, England, pAmpC",≤0.06 mg/L
same,Referring Lab's MIC,"isolate 3080800, England, KPC",>32 mg/L
same,Referring Lab's MIC,"isolate ATCC 700603, USA",≤≤0.25 mg/L
same,Referring Lab's MIC,"isolate ATCC BAA 1705, USA, KPC",8 mg/L
same,Referring Lab's MIC,"isolate ATCC BAA 1706, USA",≤≤0.25 mg/L
same,Referring Lab's MIC,"isolate K1, Australia, OXA-181",64 mg/L
same,Referring Lab's MIC,"isolate K2, Australia, OXA-181",64 mg/L
same,Referring Lab's MIC,"isolate K8, Australia, NDM-1",>256 mg/L
same,Referring Lab's MIC,"isolate K14, Australia, KPC",256 mg/L
same,Referring Lab's MIC,"isolate K16, Australia, IMP - 4",2 mg/L
same,Referring Lab's MIC,"isolate K23, Australia, IMP - 4",0.5 mg/L
same,Referring Lab's MIC,"isolate KS1, Sri Lanka, OXA-181",1 mg/L
same,Referring Lab's MIC,"isolate KS2, Sri Lanka, OXA-181",≥32 mg/L
same,Referring Lab's MIC,"isolate KS17, Sri Lanka, OXA-181",≥32 mg/L
same,Referring Lab's MIC,"isolate KS23, Sri Lanka, OXA-181",≥32 mg/L
same,Referring Lab's MIC,"isolate N17, Sweden, NDM-1",≥32 mg/L
